According to patent publication USRE29359E, “Bronchodilator expectorant composition containing theophylline and a guaiacol” (priority 1976, dated 1977):
Values after ≈ are worked out from the molar mass of the structure shown. Like-named read-outs stand apart in the source and are kept apart here.

How the values were obtained:
[1] = Solubility of theophylline in water with glyceryl guaiacolate, crystallization after 3 days (Example 1); type: physicochemical; conditions: for Result (appearance after storage): 3 days
Experimental: Varying quantities of theophylline and glyceryl guaiacolate are mixed and warmed with sufficient water to provide 100 ml. of solution. The solutions are cooled, adjusted to 100 ml. volume, and kept for 3 days to allow crystallization to take place. The specific gravities of the fresh solutions are measured, and the amount of water contained in 100 ml. of solution calculated. Two identical tubes of each composition are prepared. One is kept at room temperature (25° C.) and the other at 0° C.
A larger quantity of theophylline, 1.0 g./100 ml., will, however, dissolve when 0.75 g. of glyceryl guaiacolate per 100 ml. is also present in solution. Up to 4.0 g. of theophylline per 100 ml. of solution is soluble at room temperature when 7.0 g. of glyceryl guaiacolate per 100 ml. of solution is employed.
(§1) (1) per 100 ml. of solution.
(§2) (2) per 100 ml. of water in solution.

[2] = Guaiacol as solubilizing agent for theophylline in water (Example 2); type: physicochemical
Experimental: In order to test the effectiveness of guaiacol as a solubilizing agent for theophylline in water, an experiment corresponding to the last entry in the table accompanying Example 1 is conducted. Theophylline, 4.0 g., and guaiacol, 4.39 g. […] A haze forms as the result of liquefaction of the guaiacol without complete solution thereof.
This amount will solubilize up to and including 4.25 g. of theophylline per 100 ml. of water in the composition. For lower theophylline concentrations, proportionately less guaiacol may be used, 0.47 g. thereof per 100 ml. being sufficient to solubilize 0.85 g. of theophylline per 100 ml.

[3] = Sucrose as supplementary solubilizing agent, crystallization after 3 days (Example 5)
Experimental: Solutions containing varying quantities of theophylline, glyceryl guaiacolate, and sucrose according to the figures arranged in the following table are prepared. The ingredients are warmed to about 60° C. to effect solution and the solutions are then kept at room temperature to observe whether crystallization occurs. Sucrose is taken as representative of the total of all other water soluble pharmaceutically acceptable ingredients that may be used in formulating the present compositions for the purposes of this experiment. It is apparent, of course, that the actual weight of flavors, colors, and other ingredients that will ordinarily be used for the purpose of creating pharmaceutical elegance will be relatively minor and that sucrose or equivalent material such as corn syrup or sorbitol is the only ingredient of this type which will ordinarily be used in substantial quantity.
as §1, §2
*Appearance of duplicate samples after being stored separately at
26° C. and at 0° C. for 3 days.

[4] = accepted by the art; cited from earlier work
[5] = cited from earlier work
[6] = cited from earlier work; remark: listed apart in the source
[7] = Solubility in water or ethanol (statements in the description)
[8] = cited from earlier work; remark: listed apart in the source

**Q.** With Cn1c(=O)c2[nH]cnc2n(C)c1=O [theophylline] as the molecule, how does the “crystallization at ice temperature” value ([1]; 4.0 g theophylline, 7.0 g glyceryl guaiacolate per 100 ml. solution) read?
**A.** Crystallization at ice temperature does, however, occur

**Q.** What about the “crystallization at ice temperature” value ([1]; 4.37 g theophylline, 7.64 g glyceryl guaiacolate per 100 ml. water) of the same molecule?
**A.** Slight crystallization

**Q.** What about the “theophylline soluble per 100 ml. of solution” value ([1]; glyceryl guaiacolate 7.0 g. per 100 ml. of solution, room temperature, 4320 min) of the same molecule?
**A.** Up to 4.0 g. per 100 ml. of solution

**Q.** What about the “Result (appearance after storage)” value ([1]; theophylline 0.83 g, glyceryl guaiacolate 0 per 100 ml solution, 25 °C) of the same molecule?
**A.** Clear Solution

**Q.** And the “Result (appearance after storage)” value ([1]; theophylline 0.85 g, glyceryl guaiacolate 0 per 100 ml solution, 0 °C)?
**A.** Crystals formed.

**Q.** What about the “Result (appearance after storage)” value ([1]; theophylline 1.00 g, glyceryl guaiacolate 0.75 g per 100 ml solution, 25 °C) of the same molecule?
**A.** Solution clear.

**Q.** What about the “Result (appearance after storage)” value ([1]; theophylline 3.50 g, glyceryl guaiacolate 4.00 g per 100 ml solution, 0 °C) of the same molecule?
**A.** Crystals formed.

**Q.** What about the “Result (appearance after storage)” value ([1]; theophylline 3.50 g, glyceryl guaiacolate 5.00 g per 100 ml solution, 25 °C) of the same molecule?
**A.** Clear solution.

**Q.** What about the “Result (appearance after storage)” value ([1]; theophylline 4.00 g, glyceryl guaiacolate 7.00 g per 100 ml solution, 0 °C) of the same molecule?
**A.** Crystals formed.

**Q.** What about the “Result (appearance after storage)” value ([1]; theophylline 4.00 g, glyceryl guaiacolate 7.00 g per 100 ml solution, 25 °C) of the same molecule?
**A.** Clear solution.

**Q.** And the solubility ([1]; water, no glyceryl guaiacolate, read-out: normal solubility of theophylline (exceeded by))?
**A.** < 8.5 mg/mL

**Q.** What about the “theophylline solubilized by guaiacol” value ([2]; guaiacol 0.47 g. per 100 ml.) of the same molecule?
**A.** 0.85 g. per 100 ml.

**Q.** What about the “theophylline solubilized per 100 ml. of water” value ([2]; guaiacol about 4.05 g. per 100 ml. water, 4320 min) of the same molecule?
**A.** ≤ 4.25 g. per 100 ml. of water

**Q.** What about the “theophylline per 100 ml. of water in composition” value [3] of the same molecule?
**A.** 4.4 g. per 100 ml. of water

**Q.** And the solubility at 72 h ([3]; water)?
**A.** ≥ 44 mg/mL

**Q.** And the therapeutic blood concentration [4]?
**A.** 5 µg/mL

**Q.** And the solubility in ethanol ([5]; published figure)?
**A.** 1.25 g./100 ml.

**Q.** What about the “pain on intramuscular injection” value ([6]; intramuscular) of the same molecule?
**A.** painful

**Q.** What about the absorption pattern ([6]; oral) of the same molecule?
**A.** irregular absorption pattern

**Q.** What about the gastrointestinal side effects ([6]; oral) of the same molecule?
**A.** frequently results in abdominal discomfort, nausea, and vomiting

**Q.** What about the “concentration in aqueous solution with guaiacol or water soluble forms thereof” value ([7]; solubilized by guaiacol and water soluble forms) of the same molecule?
**A.** ≤ 4.0 g./100 ml.

**Q.** What about the “effect of water soluble ingredients on theophylline solubility” value ([7]; sucrose, sorbitol, glycerol, ethanol, solubilized by guaiacol and its derivatives) of the same molecule?
**A.** do not tend to diminish the solubility of the theophylline significantly

**Q.** What about the solubility ([7]; water) of the same molecule?
**A.** 80 mg/mL (≈ 444 mM)

**Q.** What does the source list for COc1ccccc1O [guaiacol]?
**A.** specific gravity of solution ([2]; guaiacol 3.8 g, theophylline 4.0 g): ~1.016; crystallization on storage ([2]; guaiacol 3.8 g, 3 days, room temperature or 0 °C): no crystals separate; useful upper guaiacol solubility ratio ([2]; room temperature or 0 °C, 4320 min): about 4.05 g. per 100 ml. of water; appearance of solution ([2]; theophylline 4.0 g, guaiacol 3.8 g): clear solution; appearance of solution ([2]; theophylline 4.0 g, guaiacol 4.39 g): A haze forms; guaiacol dissolved in 100 ml. of water ([2]; with 4.37 g. theophylline): 4.05 g; concentration of saturated solution in water ([5]; room temperature, absence of other solutes): 1.7 g./100 ml.; water solubility [5]: ≥ 1.7 g./100 ml.

**Q.** What does the source list for COc1cc(S(=O)(=O)[O-])ccc1O.O.[K+] [potassium guaiacol sulfonate]?
**A.** crystallization on storage (potassium guaiacol sulfonate 4.28 g, theophylline 1.5 g per 100 ml., ice temperature): Slight crystallization occurs; appearance of solution (potassium guaiacol sulfonate 4.28 g, theophylline 1.5 g per 100 ml., room temperature): clear solution; crystallization on storage (potassium guaiacol sulfonate 4.28 g, theophylline 2 g per 100 ml., 0 °C): Crystallization from this solution occurs; separation of solid on storage (potassium guaiacol sulfonate 4.28 g, theophylline 2 g per 100 ml., room temperature): only very slight separation of solid material occurs; crystallization on storage (potassium guaiacol sulfonate 8.56 g, theophylline 4.0 g in 100 ml., 0 °C): Crystallization from this solution occurs; crystallization on storage (potassium guaiacol sulfonate 8.56 g, theophylline 4.0 g in 100 ml., room temperature): Crystallization from this solution occurs; water solubility [5]: ≥ 1.7 g./100 ml.

**Q.** With COc1ccccc1OCC(O)CO (stereo not drawn) [glyceryl guaiacolate] as the molecule, how does the “glyceryl guaiacolate per 100 ml. of water in composition” value [3] read?
**A.** 8.7 g. per 100 ml. of water

**Q.** What about the “glyceryl guaiacolate upper concentration limit with sucrose” value ([3]; water, 72 h) of the same molecule?
**A.** ≥ 8.7 g. per 100 ml. of water

**Q.** What about the “concentration of saturated solution in water” value ([5]; 25 °C) of the same molecule?
**A.** 5 g./100 ml.

**Q.** What about the water solubility [5] of the same molecule?
**A.** ≥ 1.7 g./100 ml.

**Q.** For COc1ccccc1OC1(O)C(=O)NC(=O)NC1=O [hemiacetal condensation product of guaiacol and alloxan], which water solubility [5] is on record?
**A.** ≥ 1.7 g./100 ml.

**Q.** Which “precipitation under acidic conditions” value ([8]; acidic conditions such as occur in the stomach) does the source give for Cn1c(=O)c2[nH]cnc2n(C)c1=O [aminophylline] here?
**A.** precipitation often occurs

**Q.** And the “solubility in alkaline solution” value ([8]; in excess of pH 8.0)?
**A.** relatively high solubilities in alkaline solution
